Consider 29 compounds from patent publication US6479531B1, “Gastrin and cholecystokinin receptor ligands” (James Black Foundation Limited, priority 1998, dated 2002).

The experiment addresses T1, CCKB receptor (Mus musculus, UniProt P56481).
T1 construct: The whole brains from male mice (CD1 22-25 g; Charles River) were removed; from tissue; host or cells: cerebral cortex membranes of male CD1 mice
T1 sequence (P56481 1-453): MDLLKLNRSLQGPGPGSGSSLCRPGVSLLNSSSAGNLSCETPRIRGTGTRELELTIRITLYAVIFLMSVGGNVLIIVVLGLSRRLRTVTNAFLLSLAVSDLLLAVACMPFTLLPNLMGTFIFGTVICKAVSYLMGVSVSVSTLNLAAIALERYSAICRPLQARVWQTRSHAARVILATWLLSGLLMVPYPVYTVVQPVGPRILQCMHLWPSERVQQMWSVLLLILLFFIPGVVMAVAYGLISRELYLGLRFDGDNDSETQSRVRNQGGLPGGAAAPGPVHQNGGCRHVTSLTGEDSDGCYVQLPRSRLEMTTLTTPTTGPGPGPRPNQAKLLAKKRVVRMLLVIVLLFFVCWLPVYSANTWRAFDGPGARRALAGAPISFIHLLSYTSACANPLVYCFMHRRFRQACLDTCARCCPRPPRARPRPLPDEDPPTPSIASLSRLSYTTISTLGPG
As to the kind of experiment: CCKB receptor radioligand binding assay in mouse cortical membranes. To be noted: [125I]-CCK8(S) 200 pM, 150 min at 21±3°, read-out: CCKB pKi (converted). How it is done:
The compounds of the examples were tested for binding at the CCKB receptor in mouse cortical membranes by means of a radioligand binding assay. The procedure was as follows:
The whole brains from male mice (CD1 22-25 g; Charles River) were removed and placed in ice-cold buffer (pH 7.2 @ 21±3°) of the following composition (mM); 10 HEPES, 130 NaCl, 4.7 KCl, 5 MgCl2, 1 EDTA and containing 0.25 gl^−1 bacitracin. The cortex was dissected, weighed and homogenised in 40 ml ice-cold buffer using a Teflon-in-glass homogeniser. The homogenate was centrifuged at 39800 g for 20 min […], the supernatant discarded and the pellet resuspended by homogenisation in fresh buffer. The homogenate was recentrifuged (39800 g, 20 min @ 4°) and the final pellet was resuspended in HEPES buffer to give a tissue concentration of 20 mg ml^−1 (original wet weight).
The assay was terminated by rapid filtration through pre-soaked Whatman GF/B filters using a Brandell Cell Harvester. The filters were washed (3×3 ml) with ice-cold 50 mM Tris-HCl (pH 7.4 @ 4° C.) and bound radioactivity determined by counting (1 min) in a gamma-counter.

SMILES strings stand for the structures.

With `O=C(O)c1cc(NC(=O)c2nc[nH]c2CC2CCCCCC2)cc(C(=O)O)c1` [Example 35, 5-[(5-Cycloheptylmethyl-1H-imidazole-4-carbonyl)-amino]-isophthalic Acid], the Ki was 3890 nM.
As to `Cc1ccccc1-c1nc(C(=O)Nc2cc(C(=O)O)cc(C(F)(F)F)c2)c(CCC23CC4CC(CC(C4)C2)C3)[nH]1` [Example 243, 3-{[5-(2-Adamantan-1-yl-ethyl)-2-o-tolyl-1H-imidazole-4-carbonyl]-amino}-5-trifluoromethyl-benzoic Acid], the Ki is 537 nM.
Regarding `Cc1ccccc1-c1nc(C(=O)NC(C(=O)O)c2ccccc2)c(CCC23CC4CC(CC(C4)C2)C3)[nH]1` (centres unmarked) [Example 102, {[5-(2-Adamantan-1-yl-ethyl)-2-o-tolyl-1H-imidazole-4-carbonyl]-amino}-phenyl-acetic Acid], the Ki was 776 nM.
Turning to `O=C(O)c1cccc(NC(=O)c2nc(C3CCCCC3)[nH]c2CCc2ccccc2)c1` [Example 88, 3-[(2-Cyclohexyl-5-phenethyl-1H-imidazole-4-carbonyl)-amino]-benzoic Acid], the Ki is 6610 nM.
Turning to `Cc1ccccc1-c1nc(C(=O)Nc2ccc(CC(=O)O)cc2)c(CCC23CC4CC(CC(C4)C2)C3)[nH]1` [Example 99], the Ki was 186 nM.
For `O=C(O)c1cccc(NC(=O)c2nc(-c3cccc4ccccc34)[nH]c2CCC23CC4CC(CC(C4)C2)C3)c1` [Example 145, 3-{[5-(2-Adamantan-1-yl-ethyl)-2-naphthalen-1-yl-1H-imidazole-4-carbonyl]-amino}-benzoic Acid], the Ki is 263 nM.
Consider `Cc1ccccc1-c1nc(C(=O)Nc2cccc(C(=O)O)c2)c(CCC23CC4CC(CC(C4)C2)C3)s1` [Example 121, 3-{[5-(2-Adamanatan-1-yl-ethyl)-2-o-tolyl-thiazole-4-carbonyl]-amino}-benzoic Acid], for which the Ki is 2400 nM.
To `O=C(O)c1cccc(CNC(=O)c2nc(-c3ccccc3)[nH]c2CCC23CC4CC(CC(C4)C2)C3)c1` [Example 85, 3-({[5-(2-Adamantan-1-yl-ethyl)-2-phenyl-1H-imidazole-4-carbonyl]-amino}-methyl)-benzoic Acid] belongs 479 nM.
Under `O=C(O)c1cccc(NC(=O)c2nc(-c3cc(Cl)cc(Cl)c3)[nH]c2CCC23CC4CC(CC(C4)C2)C3)c1` [Example 147, 3-{[5-(2-Adamantan-1-yl-ethyl)-2-(3,5-dichlorophenyl)-1H-imidazole-4-carbonyl]-amino}-benzoic Acid] stands 912 nM; under `O=C(O)c1cc(NC(=O)c2nc(-c3ccc[nH]3)[nH]c2CC2CCCCCC2)cc(C(=O)O)c1` [Example 33, 5-[(5-Cycloheptylmethyl-2-(1H-pyrrol-2-yl)-1H-imidazole-4-carbonyl)-amino]-isophthalic Acid], 1860 nM; under `Cc1ccc(C(=O)O)cc1NC(=O)c1nc(-c2ccccc2C)[nH]c1CCC12CC3CC(CC(C3)C1)C2` [Example 239, 3-{[5-(2-Adamantan-1-yl-ethyl)-2-o-tolyl-1H-imidazole-4-carbonyl]-amino}-4-methyl-benzoic Acid], 2000 nM.
Regarding `O=C(O)c1cc(NC(=O)c2nc(-c3ccccc3)[nH]c2CCC2CCCCCC2)cc(C(=O)O)c1` [Example 39, 5-{[5-(2-Cycloheptyl-ethyl)-2-phenyl-1H-imidazole-4-carbonyl]-amino}-isophthalic Acid], the Ki is 2040 nM.
For the compound `O=C(O)c1cccc(NC(=O)c2nc(-c3ccccc3O)[nH]c2CCC23CC4CC(CC(C4)C2)C3)c1` [Example 64, 3-{[5-(2-Adamantan-1-yl-ethyl)-2-(2-hydroxy-phenyl)-1H-imidazole-4-carbonyl]-amino}-benzoic Acid], the Ki was 1380 nM.
For the compound `Cc1ccccc1-c1nc(C(=O)Nc2cccc(OCC(=O)O)c2)c(CCC23CC4CC(CC(C4)C2)C3)[nH]1` [Example 98, (3-{[5-(2-Adamantan-1-yl-ethyl)-2-o-tolyl-1H-imidazole-4-carbonyl]-amino}-phenoxy)-acetic Acid], the Ki was 25.1 nM.
On to `O=C(O)CCNC(=O)c1cc(-c2ccccc2)[nH]c1CC12CC3CC(CC(C3)C1)C2` [Example 10, 3-[(2-Adamantan-1-ylmethyl-5-phenyl-1H-pyrrole-3-carbonyl)-amino]-propionic Acid], for which the Ki was 3020 nM.
To `O=C(O)c1cc(NC(=O)c2ncn(Cc3ccccc3)c2CC2CCCCCC2)cc(C(=O)O)c1` [Example 36, 5-[(1-Benzyl-5-cycloheptylmethyl-1H-imidazole-4-carbonyl)-amino]-isophthalic Acid] belongs 3160 nM; to `O=C(Nc1cccc(CO)c1)c1nc(-c2ccccc2)[nH]c1CCC12CC3CC(CC(C3)C1)C2` [Example 48, 5-(2-Adamantan-1-yl-ethyl)-2-phenyl-1H-imidazole-4-carboxylic Acid (3-hydroxymethyl-phenyl)-amide], 269 nM; to `O=C(O)c1cccc(NC(=O)c2nc(C3CCCCCCCCCCC3)[nH]c2CCC23CC4CC(CC(C4)C2)C3)c1` [Example 127, 3-{[5-(2-Adamantan-1-yl-ethyl)-2-cyclododecyl-1H-imidazole-4-carbonyl]-amino}-benzoic Acid], 1700 nM.
For the compound `O=C(O)c1cc(NC(=O)c2nc(-c3cccnc3)[nH]c2CC2CCCCCC2)cc(C(=O)O)c1` [Example 32, 5-[(5-Cycloheptylmethyl-2-pyridin-3-yl-1H-imidazole-4-carbonyl)-amino]-isophthalic Acid], the Ki is 4790 nM.
In the case of `Cc1ccc(NC(=O)c2nc(-c3c(Cl)cccc3Cl)[nH]c2CCC23CC4CC(CC(C4)C2)C3)cc1C(=O)O` [Example 149, 5-{[5-(2-Adamantan-1-yl-ethyl)-2-(2,6-dichlorophenyl)-1H-imidazole-4-carbonyl]-amino}-2-methyl-benzoic Acid], the Ki was 5.37 nM.
On to `Cc1ccccc1-c1nc(C(=O)Nc2cccc(CC(=O)O)c2)c(CCC23CC4CC(CC(C4)C2)C3)[nH]1` [Example 83, (3-{[5-(2-Adamantan-1-yl-ethyl)-2-o-tolyl-1H-imidazole-4-carbonyl]-amino}-phenyl)-acetic Acid], for which the Ki was 2.24 nM.
Under `CN(C)c1ccccc1-c1nc(C(=O)Nc2cccc(C(=O)O)c2)c(CCC23CC4CC(CC(C4)C2)C3)[nH]1` [Example 70, 3-{[5-(2-Adamantan-1-yl-ethyl)-2-(2-dimethylamino-phenyl)-1H-imidazole-4-carbonyl]-amino}-benzoic Acid] stands 245 nM; under `O=C(O)c1cccc(NC(=O)c2nc(C(C3CCCCC3)C3CCCCC3)[nH]c2CCC23CC4CC(CC(C4)C2)C3)c1` [Example 128, 3-{[5-(2-Adamanatan-1-yl-ethyl)-2-dicyclohexylmethyl-1H-imidazole-4-carbonyl]-amino}-benzoic Acid], 2140 nM.
With `Cc1ccccc1-c1nc(C(=O)Nc2ccc(C)c(C(=O)O)c2C)c(CCC23CC4CC(CC(C4)C2)C3)[nH]1` [Example 240, 3-{[5-(2-Adamantan-1-yl-ethyl)-2-o-tolyl-1H-imidazole-4-carbonyl]-amino}-2,6-dimethyl-benzoic Acid], the Ki is 26.3 nM.
`Cc1ccccc1-c1nc(C(=O)Nc2cccc(S(=O)(=O)NC(=O)c3ccccc3)c2)c(CCC23CC4CC(CC(C4)C2)C3)[nH]1` [Example 100, 5-(2-Adamantan-1-yl-ethyl)-2-o-tolyl-1H-imidazole-4-carboxylic Acid (3-benzoylsulfamoyl-phenyl)-amide]: the Ki was 117 nM.
To `Cc1ccccc1-c1nc(C(=O)N2CCC[C@H]2C(=O)O)c(CCC23CC4CC(CC(C4)C2)C3)[nH]1` [Example 95, (2S)-1-[5-(2-Adamantan-1-yl-ethyl)-2-o-tolyl-1H-imidazole-4-carbonyl]-pyrrolidine-carboxylic Acid] belongs 2510 nM; to `O=C(Nc1cc(-c2nnn[nH]2)cc(-c2nnn[nH]2)c1)c1cc(-c2ccc3ccccc3c2)[nH]c1CC12CC3CC(CC(C3)C1)C2` [Example 5, 2-Adamantan-1-ylmethyl-5-naphthalen-2-yl-1H-pyrrole-3-carboxylic Acid [3,5-bis-(1H-tetrazol-5-yl)-phenyl]-amide], 229 nM.
Under `O=C(O)c1cc(NC(=O)c2nc(-c3cccc4ccccc34)[nH]c2CC2CCCCCC2)cc(C(=O)O)c1` [Example 23, 5-[(5-Cycloheptylmethyl-2-naphthalen-1-yl-1H-imidazole-4-carbonyl)-amino]-isophthalic Acid] stands 1230 nM; under `Cc1ccccc1-c1nc(C(=O)Nc2ccc(F)c(C(=O)O)c2F)c(CCC23CC4CC(CC(C4)C2)C3)[nH]1` [Example 248, 3-{[5-(2-Adamantan-1-yl-ethyl)-2-o-tolyl-1H-imidazole-4-carbonyl]-amino}-2,6-difluoro-benzoic Acid], 25.7 nM.
